From patent US10168342B2, “Lipid probes and uses thereof” (THE SCRIPPS RESEARCH INSTITUTE, priority 2015, dated 2019)
Read-outs that look alike come from different tables or passages of the source.

What was measured:
[1] = target: T1, AEA-DA lipid probe targets in Neuro2a cells (Mus musculus, UniProt P00375)
T1 sequence (P00375 1-187): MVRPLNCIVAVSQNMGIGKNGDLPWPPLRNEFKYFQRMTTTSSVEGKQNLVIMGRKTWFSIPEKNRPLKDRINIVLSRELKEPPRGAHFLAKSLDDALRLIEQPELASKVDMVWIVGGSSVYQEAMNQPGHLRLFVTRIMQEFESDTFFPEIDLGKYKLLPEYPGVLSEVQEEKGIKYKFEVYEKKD

[2] = target: T2, AEA-DA lipid probe targets in Neuro2a cells (Mus musculus, UniProt Q0VGU4)
T2 sequence (Q0VGU4 24-617): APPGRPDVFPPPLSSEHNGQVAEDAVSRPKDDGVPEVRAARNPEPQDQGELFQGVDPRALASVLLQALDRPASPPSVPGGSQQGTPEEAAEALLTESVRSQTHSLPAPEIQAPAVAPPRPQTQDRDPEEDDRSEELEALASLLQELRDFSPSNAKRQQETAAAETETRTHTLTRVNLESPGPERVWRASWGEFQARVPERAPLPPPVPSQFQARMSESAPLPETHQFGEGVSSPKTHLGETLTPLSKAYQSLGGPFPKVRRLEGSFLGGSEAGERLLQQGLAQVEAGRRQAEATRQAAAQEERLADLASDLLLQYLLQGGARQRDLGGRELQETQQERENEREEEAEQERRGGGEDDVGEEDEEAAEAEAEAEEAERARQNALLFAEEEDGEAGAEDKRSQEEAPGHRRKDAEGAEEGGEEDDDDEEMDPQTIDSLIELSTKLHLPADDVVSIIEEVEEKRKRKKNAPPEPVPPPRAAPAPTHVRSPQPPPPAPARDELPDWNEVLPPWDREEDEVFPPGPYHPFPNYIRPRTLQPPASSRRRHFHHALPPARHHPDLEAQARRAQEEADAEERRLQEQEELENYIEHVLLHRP

[3] = target: T3, AEA-DA lipid probe targets in Neuro2a cells (Mus musculus, UniProt Q80ZW2)
T3 sequence (Q80ZW2 22-207): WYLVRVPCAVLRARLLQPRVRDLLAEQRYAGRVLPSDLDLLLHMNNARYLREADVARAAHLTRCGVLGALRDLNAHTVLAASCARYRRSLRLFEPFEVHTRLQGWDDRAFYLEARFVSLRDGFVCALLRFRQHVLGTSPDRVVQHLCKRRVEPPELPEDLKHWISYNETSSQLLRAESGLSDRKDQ

[4] = target: AEA-DA lipid probe targets in Neuro2a cells (Mus musculus, UniProt Q8VDN2)
[5] = target: T4, AEA-DA lipid probe targets in Neuro2a cells (Mus musculus, UniProt Q9WU62)
T4 sequence (Q9WU62 1-880): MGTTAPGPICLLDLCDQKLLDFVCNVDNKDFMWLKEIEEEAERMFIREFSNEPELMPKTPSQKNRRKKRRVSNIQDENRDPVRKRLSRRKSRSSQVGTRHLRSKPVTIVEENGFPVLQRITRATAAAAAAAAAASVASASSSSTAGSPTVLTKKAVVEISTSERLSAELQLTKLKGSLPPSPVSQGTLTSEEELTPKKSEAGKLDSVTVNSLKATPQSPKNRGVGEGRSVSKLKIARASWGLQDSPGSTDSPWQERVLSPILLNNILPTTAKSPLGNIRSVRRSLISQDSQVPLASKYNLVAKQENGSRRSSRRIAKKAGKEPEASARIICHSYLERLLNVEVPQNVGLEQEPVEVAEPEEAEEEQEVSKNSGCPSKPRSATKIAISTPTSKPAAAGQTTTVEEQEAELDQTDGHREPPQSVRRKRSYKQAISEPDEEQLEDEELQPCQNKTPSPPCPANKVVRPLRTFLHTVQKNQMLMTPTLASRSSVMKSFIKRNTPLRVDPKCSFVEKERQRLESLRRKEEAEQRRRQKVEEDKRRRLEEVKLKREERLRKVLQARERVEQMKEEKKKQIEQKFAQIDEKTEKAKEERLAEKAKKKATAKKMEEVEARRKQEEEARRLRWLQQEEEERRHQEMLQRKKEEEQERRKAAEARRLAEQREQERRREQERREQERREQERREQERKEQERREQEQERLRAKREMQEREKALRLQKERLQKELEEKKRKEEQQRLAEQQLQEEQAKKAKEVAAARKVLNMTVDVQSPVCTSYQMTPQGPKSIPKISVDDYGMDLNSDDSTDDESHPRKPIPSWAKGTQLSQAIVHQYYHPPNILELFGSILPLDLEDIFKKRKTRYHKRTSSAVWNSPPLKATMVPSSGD

[6] = target: T5, AEA-DA lipid probe targets in Neuro2a cells (Mus musculus, UniProt P81117)
T5 sequence (P81117 25-420): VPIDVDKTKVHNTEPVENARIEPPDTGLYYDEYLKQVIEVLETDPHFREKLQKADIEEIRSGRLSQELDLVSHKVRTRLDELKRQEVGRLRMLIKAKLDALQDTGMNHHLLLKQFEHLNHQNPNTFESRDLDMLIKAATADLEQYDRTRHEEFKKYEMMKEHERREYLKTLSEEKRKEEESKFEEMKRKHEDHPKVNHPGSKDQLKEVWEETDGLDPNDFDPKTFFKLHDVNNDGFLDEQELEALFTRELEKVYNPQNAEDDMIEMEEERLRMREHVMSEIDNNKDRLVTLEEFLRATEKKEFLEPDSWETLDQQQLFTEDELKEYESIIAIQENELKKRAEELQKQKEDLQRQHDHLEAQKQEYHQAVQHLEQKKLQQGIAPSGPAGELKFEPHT

[7] = target: AEA-DA lipid probe targets in Neuro2a cells (Mus musculus, UniProt Q60932); settings: Neuro2a cells, AEA-DA probe
Sequence of AEA-DA lipid probe targets in Neuro2a cells (Mus musculus, UniProt Q60932) (Q60932 whole entry): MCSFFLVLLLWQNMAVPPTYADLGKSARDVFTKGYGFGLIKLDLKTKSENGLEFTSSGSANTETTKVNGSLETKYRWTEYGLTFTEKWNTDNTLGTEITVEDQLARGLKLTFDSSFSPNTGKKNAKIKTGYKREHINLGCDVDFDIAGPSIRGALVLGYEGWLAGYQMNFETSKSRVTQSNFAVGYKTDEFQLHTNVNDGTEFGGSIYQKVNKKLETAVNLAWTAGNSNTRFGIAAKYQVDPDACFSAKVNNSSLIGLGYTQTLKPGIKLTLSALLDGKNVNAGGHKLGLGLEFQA

Structure (SMILES)	SILAC ratio Dhfr ([1]; competitor 25 μM)	SILAC ratio, Vgf ([2]; competitor 25 μM)	SILAC ratio Them6 ([3]; competitor 25 μM)	SILAC ratio Atp1a1 ([4]; competitor 25 μM)	SILAC ratio Incenp ([5]; competitor 25 μM)	SILAC ratio, Nucb2 ([6]; competitor 25 μM)	SILAC ratio, VDAC1 (P21796) ([7]; competitor 25 μM)	further results
O=C(/C=C/c1cccnc1)NCCCCC1CCN(C(=O)c2ccccc2)CC1 [FK-866, reference compound]	1.2	1.1	1.0	1.2	0.8	1.1	1.0	
CCCCC/C=C\C/C=C\C/C=C\C/C=C\CCCC(=O)NCCO [AEA, anandamide, reference compound]								SILAC ratio Dhfr ([1]; competitor 200 μM): 1.2; SILAC ratio, Vgf ([2]; competitor 200 μM): 1.0; SILAC ratio Them6 ([3]; competitor 200 μM): 1.9; SILAC ratio Atp1a1 ([4]; competitor 200 μM): 1.4; SILAC ratio Incenp ([5]; competitor 200 μM): 1.4; SILAC ratio, Nucb2 ([6]; competitor 200 μM): 1.5; SILAC ratio, VDAC1 (P21796) ([7]; competitor 200 μM): 1.1
CN1CCN(C(=O)c2c(-c3ccccc3)c3cc([N+](=O)[O-])ccc3n2C)CC1 [KML110, (1-Methyl-5-nitro-3-phenyl-1H-indol-2-yl)(4-methylpiperazin-1-yl)methanone]	1.4	1.4	1.3	1.2	1.2	2.0		
C=CCN(C)CCCCCCOc1ccc(C(=O)c2ccc(Br)cc2)c(F)c1 [Ro 48-8071, reference compound]	0.8	0.9	1.0	1.0		0.8	1.0	
CN1CCN(C(=O)c2[nH]c3ccc([N+](=O)[O-])cc3c2-c2ccccc2)CC1 [MJN228, (4-Methylpiperazin-1-yl)(5-nitro-3-phenyl-1H-indol-2-yl)methanone]	1.6	1.3	1.3	1.4	1.2	1.6	1.1	SILAC ratio Dhfr ([1]; competitor 10 μM): 2.0; SILAC ratio Dhfr ([1]; competitor 50 μM): 0.4; SILAC ratio Dhfr ([1]; competitor 100 μM): 1.5; SILAC ratio, Vgf ([2]; competitor 10 μM): 1.3; SILAC ratio, Vgf ([2]; competitor 50 μM): 1.1; SILAC ratio, Vgf ([2]; competitor 100 μM): 1.0; SILAC ratio Them6 ([3]; competitor 10 μM): 1.2; SILAC ratio Them6 ([3]; competitor 100 μM): 1.3; SILAC ratio Atp1a1 ([4]; competitor 10 μM): 1.4; SILAC ratio Atp1a1 ([4]; competitor 50 μM): 1.1; SILAC ratio Atp1a1 ([4]; competitor 100 μM): 1.2; SILAC ratio Incenp ([5]; competitor 10 μM): 1.4; SILAC ratio Incenp ([5]; competitor 50 μM): 1.8; SILAC ratio Incenp ([5]; competitor 100 μM): 1.7; SILAC ratio, Nucb2 ([6]; competitor 10 μM): 1.4; SILAC ratio, Nucb2 ([6]; competitor 50 μM): 2.1; SILAC ratio, Nucb2 ([6]; competitor 100 μM): 2.9
